For 28 compounds, IC50 results are on record in patent publication US12404249B2, “Heterocyclic derivatives and use thereof” (C&C RESEARCH LABORATORIES, priority 2018, dated 2025).

The subject of assay [1] is prostate cancer cell line (LNCap). Kind of assay: Cell growth inhibition assay (Celltiter Glo). It is filed as cell-based. To be noted: Homo sapiens, LNCap cells, 120 hours incubation. On the procedure:
Cancer cell inhibitory effects by the compounds of the Examples were evaluated as follows. The prostate cancer cell line (LNCap) used was cultured under the condition according to the vendor's recommendation. LNCap was dispensed into a 96-well plate at 10,000 cells/well. After incubation under the condition of 37° C. and 5% CO2 for 24 hours, the Example compounds of 50 mM DMSO stock were diluted to various concentrations and treated to the 96-well plate containing cells. After treatment of the Example compounds, LNCap cells were incubated in an incubator (37° C., 5% CO2) for 120 hours. After each incubation time, the 96-well plate was observed under a microscope to record the presence or absence of drug precipitation and specificities, and the 96-well plate was kept at room temperature for 30 minutes. Then, after addition of 20 μL of Celltiter Glo solution, the 96-well plate was well shaken for 30 minutes. The growth inhibitory activity was measured on microLUMA LB96P (BERTHOLD) instrument using Glo-vial protocol. As a negative control, a 96 well-plate in which culture medium was added but cells were not plated was used. As a positive control, a 96 well-plate in which cells were plated and 0.1% DMSO instead of drugs was added was used. The results of growth inhibitory effects of the Example compounds on prostate cancer cell line are represented in Table 2.

Assay [2] deals with T1, STAT3 (Homo sapiens, UniProt P40763).
T1 construct: endogenous in cells; host or cells: LNCaP (human prostate cancer) stably carrying pSTAT3-TA-luc reporter plasmid
Kind of assay: STAT3 activation inhibition assay (reporter gene assay, LNcaP stable cell line, IL-6 stimulated). It is filed as cell-based. The note with it: LNcaP stable cell line [plasmid STAT3-TA-luc], IL-6 10 ng/mL, 48 hours, luciferase activity; read-out: IC50 (μM) pSTAT3. On the procedure:
Cancer cell lines used for evaluating the compounds of the Examples were purchased from ATCC (American Type Culture Collection) or KCLB (Korean Cell Line Bank), and cultured according to the vendor's recommendation. The human prostate cancer cell line stably expressing the STAT3 promoter (LNcaP stable cell line [plasmid STAT3-TA-luc])—which was prepared to evaluate the inhibitory effect of the compounds of the Examples against dimerization of STAT3—was cultured in RPMI1640 (Cat no. 11875, Gibco), 10% fetal bovine serum (Cat no. SH30071.03, Hyclone) and 150 μg/mL G418 solution (Cat no. 04 727 894 001, Roche).
The reporter gene assay of LNcap stable cell line was carried out by the use of RPMI 1640 medium containing 3% DCC-FBS (without G-418). The cell line was dispensed into two (2) white 96-well plates at 30,000 cells/well/50 μL. The cell line was incubated for 24 hours under the condition of 37° C. and 5% CO2, and then the Example compounds of 50 mM DMSO stock were diluted to various concentrations and treated to two (2) white 96-well plates containing cells. Then, IL-6 was treated to a final concentration of 10 ng/mL. After the treatment of Example compounds and IL-6, the cells were cultured for 48 hours under the condition of 37° C. and 5% CO2. After 48 hours, the 96-well plates were observed under a microscope to record the presence or absence of drug precipitation and specificities, and the 96-well plates were kept at room temperature for 30 minutes. Then, in the case of the first 96-well plate, the culture medium on the plate was removed to measure the luciferase activity, and treated with passive lysis buffer at 20 µL/well and shaken for 30 minutes. The luciferase activity was measured on microLUMA LB96P (BERTHOLD) or Centro XS LB 960 (BERTHOLD) instrument using Luciferase assay system (Cat No. E1501, Promega Corporation). In the case of the second 96-well plate, 20 μL of Glo-mix solution was added to measure cytotoxicity by the compounds of the Examples, and the plate was well shaken for 10 minutes and analyzed on microLUMA LB96P (BERTHOLD) instrument using Glo-vial protocol. As a negative control, a 96 well-plate in which culture medium was added but cells were not plated was used. As a positive control, a 96 well-plate in which cells were plated and 0.1% DMSO and culture medium containing stimulation were added was used.
The results of evaluating the inhibitory effects of the compounds of the Examples against dimerization of STAT3 and STAT1 via STAT3 and STAT1 reporter gene assay are represented in Table 1.

T1 sequence (P40763 whole entry): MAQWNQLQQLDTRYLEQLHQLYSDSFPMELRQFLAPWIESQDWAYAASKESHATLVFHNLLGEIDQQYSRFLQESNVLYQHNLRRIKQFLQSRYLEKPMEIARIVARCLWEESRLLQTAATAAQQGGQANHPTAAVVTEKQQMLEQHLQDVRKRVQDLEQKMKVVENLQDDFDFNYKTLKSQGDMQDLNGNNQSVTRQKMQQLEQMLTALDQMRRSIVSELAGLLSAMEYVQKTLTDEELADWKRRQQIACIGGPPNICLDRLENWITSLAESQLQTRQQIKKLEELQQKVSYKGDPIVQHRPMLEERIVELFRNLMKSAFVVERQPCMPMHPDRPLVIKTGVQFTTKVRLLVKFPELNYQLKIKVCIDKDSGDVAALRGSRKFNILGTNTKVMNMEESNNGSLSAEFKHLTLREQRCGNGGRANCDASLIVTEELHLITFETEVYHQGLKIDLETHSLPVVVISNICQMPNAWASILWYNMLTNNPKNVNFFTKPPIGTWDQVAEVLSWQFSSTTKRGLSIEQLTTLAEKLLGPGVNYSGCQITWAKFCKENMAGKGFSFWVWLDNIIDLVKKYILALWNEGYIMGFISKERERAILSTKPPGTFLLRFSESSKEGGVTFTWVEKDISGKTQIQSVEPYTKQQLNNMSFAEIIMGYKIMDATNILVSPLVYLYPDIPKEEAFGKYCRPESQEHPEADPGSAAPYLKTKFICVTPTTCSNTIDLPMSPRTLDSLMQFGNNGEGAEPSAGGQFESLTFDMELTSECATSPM

With `O=[N+]([O-])c1ccc(CCNc2cc(Cl)nc3ccc(N4CCOCC4)cc23)cc1` [Example 28, 2-chloro-6-morpholino-N-(4-nitrophenethyl)quinolin-4-amine 2,2,2-trifluoroacetate], the IC50 in assay [1] stood at 44.1 µM; in assay [2] it was 32.3 µM.

`CS(=O)(=O)Nc1ccc(CCNc2ncnc3ccccc23)cc1` [Example 38, N-(4-(2-(quinazolin-4-ylamino)ethyl)phenyl)methanesulfonamide]: the IC50 was found to be 0.18 µM in assay [1] and 0.17 µM in assay [2].

In the case of `CS(=O)(=O)Nc1ccc(CCNc2ccnc3cc(OC(F)(F)F)ccc23)cc1` [Example 25, N-(4-(2-((7-(trifluoromethoxy)quinolin-4-yl)amino)ethyl)phenyl)methanesulfonamide], the IC50 amounted to 9.6 µM in assay [1] and 1.9 µM in assay [2].

With `CS(=O)(=O)Nc1ccc(CCNc2ncnc3ccsc23)cc1` [Example 66, N-(4-(2-(thieno[3,2-d]pyrimidin-4-ylamino)ethyl)phenyl)methanesulfonamide], the IC50 in assay [1] is 0.71 µM; in assay [2], 0.74 µM.

Regarding `CS(=O)(=O)Nc1ccc(CCNc2cc(Cl)nc3cc(OC(F)(F)F)ccc23)cc1` [Example 24, N-(4-(2-((2-chloro-7-(trifluoromethoxy)quinolin-4-yl)amino)ethyl)phenyl)methanesulfonamide], the IC50 in assay [1] was 6.2 µM; in assay [2], 4.1 µM.

With `O=[N+]([O-])c1ccc(CCNc2nc(Cl)nc3ccccc23)cc1` [Example 18, 2-chloro-N-(4-nitrophenethyl)quinazolin-4-amine], the values for the IC50 in assay [1] and in assay [2] were 0.48 µM and 0.21 µM, respectively.

As to `O=[N+]([O-])c1ccc(CCNc2cc(Cl)nc3ccc(-c4ccc(Cl)cc4Cl)cc23)cc1` [Example 55, 2-chloro-6-(2,4-dichlorophenyl)-N-(4-nitrophenethyl)quinolin-4-amine], the IC50 in assay [1] and in assay [2] was greater than 50 µM each time.

`NS(=O)(=O)c1ccc(CCNc2cc(Cl)nc3ccccc23)cc1` [Example 3, 4-(2-((2-chloroquinolin-4-yl)amino)ethyl)benzenesulfonamide]: the IC50 amounted to 5.1 µM in assay [1] and 10.5 µM in assay [2].

With `O=[N+]([O-])c1ccc(CCNc2cc(Cl)nc3ccc(Oc4ccccc4)cc23)cc1` [Example 33, 2-chloro-N-(4-nitrophenethyl)-6-phenoxyquinolin-4-amine], the IC50 in assay [1] was greater than 50 µM; in assay [2] it was 6 µM.

For the compound `CCc1cccc2c(NCCc3ccc([N+](=O)[O-])cc3)cc(Cl)nc12` [Example 8, 2-chloro-8-ethyl-N-(4-nitrophenethyl)quinolin-4-amine], the figures for the IC50 in assay [1] and in assay [2] were 16 µM and 7.8 µM, respectively.

Take `O=[N+]([O-])c1ccc(CCNc2cc(Cl)nc3ccc(Cl)cc23)cc1` [Example 32, 2,6-dichloro-N-(4-nitrophenethyl)quinolin-4-amine]: the IC50 in assay [1] was found to be 33.8 µM; in assay [2] it was 3.3 µM.

As to `O=[N+]([O-])c1ccc(CCNc2cc(Cl)nc3ccc(F)cc23)cc1` [Example 14, 2-chloro-6-fluoro-N-(4-nitrophenethyl)quinolin-4-amine], the values for the IC50 in assay [1] and in assay [2] were 1.9 µM and 0.59 µM, respectively.

Turning to `CS(=O)(=O)Nc1ccc(CCNc2ccnc3c(F)cccc23)cc1` [Example 46, N-(4-(2-((8-fluoroquinolin-4-yl)amino)ethyl)phenyl)methanesulfonamide], the IC50 in assay [1] worked out at 18.9 µM; in assay [2] it was 33.7 µM.

Turning to `O=[N+]([O-])c1ccc(CCNc2cc(C(F)(F)F)nc3ccccc23)cc1` [Example 49, N-(4-nitrophenethyl)-2-(trifluoromethyl)quinolin-4-amine], the IC50 was 14.1 µM in assay [1] and 5.6 µM in assay [2].

With `O=[N+]([O-])c1ccc(CCNc2ncnc3ccccc23)cc1` [Example 36, N-(4-nitrophenethyl)quinazolin-4-amine], the IC50 in assay [1] is 0.093 µM; in assay [2], 0.023 µM.

For the compound `COc1ccc2nc(Cl)cc(NCCc3ccc(NS(C)(=O)=O)cc3)c2c1` [Example 11, N-(4-(2-((2-chloro-6-methoxyquinolin-4-yl)amino)ethyl)phenyl)methanesulfonamide], the IC50 in assay [1] stood at 2.6 µM; in assay [2] it was 1.6 µM.

For the compound `CS(=O)(=O)Nc1ccc(CCNc2ncc(Cl)c3ccccc23)cc1` [Example 74, N-(4-(2-((4-chloroisoquinolin-1-yl)amino)ethyl)phenyl)methanesulfonamide], the IC50 in assay [1] was 13.1 µM; in assay [2], 3.9 µM.

As to `O=[N+]([O-])c1ccc(CCNc2cc(Cl)nc3cc(OC(F)(F)F)ccc23)cc1` [Example 12, 2-chloro-N-(4-nitrophenethyl)-7-(trifluoromethoxy)quinolin-4-amine], the IC50 in assay [1] was 9.3 µM; in assay [2], 5.8 µM.

Take `O=C(O)COc1ccc2nc(Cl)cc(NCCc3ccc([N+](=O)[O-])cc3)c2c1` [Example 43, 2-((2-chloro-4-((4-nitrophenethyl)amino)quinolin-6-yl)oxy)acetic acid]: the IC50 in assay [1] and in assay [2] was greater than 50 µM in each case.

As to `CS(=O)(=O)Nc1ccc(CCNc2nccc3nccnc23)cc1` [Example 71, N-(4-(2-(pyrido[3,4-b]pyrazin-5-ylamino)ethyl)phenyl)methanesulfonamide], the figures for the IC50 in assay [1] and in assay [2] were 20.9 µM and 9.6 µM, respectively.

Take `O=[N+]([O-])c1ccc(C(F)(F)CNc2ncnc3ccccc23)cc1` [Example 59, N-(2,2-difluoro-2-(4-nitrophenyl)ethyl)quinazolin-4-amine]: the IC50 in assay [1] was determined as 0.16 µM; in assay [2], 0.35 µM.

Regarding `O=[N+]([O-])c1ccc(CCNc2nc(F)nc3[nH]cnc23)cc1` [Example 50, 2-fluoro-N-(4-nitrophenethyl)-9H-purin-6-amine], the results for the IC50 in assay [1] and in assay [2] were 23.1 µM and 13.9 µM, respectively.

For `CS(=O)(=O)Nc1ccc(CCNc2cncc3ccccc23)cc1` [Example 63, N-(4-(2-(isoquinolin-4-ylamino)ethyl)phenyl)methanesulfonamide], the IC50 turned out to be 1.9 µM in assay [1] and 0.75 µM in assay [2].

As for `CS(=O)(=O)Nc1ccc(CCNc2nc(Cl)nc3ccccc23)cc1` [Example 23, N-(4-(2-((2-chloroquinazolin-4-yl)amino)ethyl)phenyl)methanesulfonamide], the IC50 in assay [1] was 0.25 µM; in assay [2], 0.26 µM.

On to `CS(=O)(=O)Nc1ccc(CNC(=O)c2cc(Cl)nc3ccccc23)cc1` [Example 58, 2-chloro-N-(4-(methylsulfonamido)benzyl)quinolin-4-carboxamide], for which the IC50 in assay [1] and in assay [2] was greater than 50 µM each time.

`O=[N+]([O-])c1ccc(CCNc2cncc3ccccc23)cc1` [Example 62, N-(4-nitrophenethyl)isoquinolin-4-amine]: the IC50 in assay [1] amounted to 23.5 µM; in assay [2], 12.1 µM.

As for `O=[N+]([O-])c1ccc(CCNc2nc(C(F)(F)F)nc3ccccc23)cc1` [Example 48, N-(4-nitrophenethyl)-2-(trifluoromethyl)quinazolin-4-amine], the IC50 in assay [1] amounted to 14.2 µM; in assay [2], 7.3 µM.

In the case of `O=[N+]([O-])c1ccc(CCNc2cc(Cl)nc3cccc(F)c23)cc1` [Example 29, 2-chloro-5-fluoro-N-(4-nitrophenethyl)quinolin-4-amine], the IC50 in assay [1] was 2.5 µM; in assay [2] it was 0.64 µM.
